Consider two molecules from paper PMC4648258 (ACS infectious diseases, 2015).

The test system of data set [1] is nonreplicating M. tuberculosis H37Rv. The data set is classed as cell-based, Mycobacterium tuberculosis.
The test system of data set [2] is M. tuberculosis. In words: LORA MBC99, hypoxic. The data set is classed as cell-based, Mycobacterium tuberculosis. To be noted: hypoxic conditions (LORA).
Data set [3] can be described thus: in vivo tolerance assessment, oral gavage. Details: species or system female BALB/c mice. To be noted: 100 mg/kg daily by oral gavage for 5 days, uninfected mice.
The test system of another data set is M. abscessus. The data set can be described thus: broth microdilution, A570 readout, non-tuberculosis mycobacteria. The data set is classed as cell-based. (In general: Dilution methods test growth across graded concentrations, often in twofold steps.)
A further data set has as its system M. chelonae. The data set is described as above. The data set is classed as cell-based.
A further data set relates to M. marinum. The data set is described as above. The data set is classed as cell-based.
For a further data set, the system named is M. kansasii. The description is as above. The data set is classed as cell-based.
The test system of a further data set is M. avium. The data set is described as above. The data set is classed as cell-based.
The subject of the next data set is M. smegmatis. The data set is described as above. The data set is classed as cell-based.
The subject of another data set is M. bovis BCG. The data set is classed as cell-based.
In the next data set the test system is E. faecalis. The data set can be described thus: MIC, Gram-positive panel. The data set is classed as cell-based.
In a further data set the test system is E. faecium. In words: MIC, Gram-positive panel. The data set is classed as cell-based.
The subject of data set [4] is VRE (Vancomycin-resistant E. faecium). The data set can be described thus: MIC, Gram-positive panel. The data set is classed as cell-based.
A further data set deals with S. pyogenes. The data set can be described thus: MIC, Gram-positive panel. The data set is classed as cell-based.
The subject of another data set is S. pneumoniae. In words: MIC, Gram-positive panel. The data set is classed as cell-based.
The next data set deals with B. thuringiensis. In words: MIC, Gram-positive panel. The data set is classed as cell-based.
In a further data set the test system is B. cereus 14579. The data set can be described thus: MIC, Gram-positive panel. The data set is classed as cell-based.
In another data set the test system is B. cereus 10987. The data set can be described thus: MIC, Gram-positive panel. The data set is classed as cell-based.
The next data set has as its system B. anthracis. The data set is classed as cell-based.
A further data set deals with B. subtilis. In words: MIC, Gram-positive panel. The data set is classed as cell-based.
In the next data set the test system is A. baumannii. In words: MIC, Gram-negative panel. The data set is classed as cell-based.
For the next data set, the system named is E. coli. The data set can be described thus: MIC, Gram-negative panel. The data set is classed as cell-based.
A further data set deals with E. cloacae. In words: MIC, Gram-negative panel. The data set is classed as cell-based.
The test system of the next data set is K. pneumoniae. In words: MIC, Gram-negative panel. The data set is classed as cell-based.
The test system of a further data set is P. aeruginosa. In words: MIC, Gram-negative panel. The data set is classed as cell-based.
The subject of another data set is P. mirabilis. In words: MIC, Gram-negative panel. The data set is classed as cell-based.
The nature of data set [5]: liver microsome stability. The data set is classed as in vitro ADME. To be noted: 1 μM, 30 min, 0.5 mg/mL human liver microsomes. For orientation: Microsomes from liver hold many membrane-bound enzymes, among them those of drug oxidation.
Data set [6] in a line: liver microsome stability. The data set is classed as in vitro ADME. To be noted: 1 μM, 30 min, 0.5 mg/mL mouse liver microsomes.
In a further data set the test system is Caco-2. In words: Caco-2 bidirectional permeability. To be noted: Caco-2, 5 μM. The data set is classed as in vitro ADME. Background: Passage across Caco-2 layers is used to estimate intestinal permeability.
The next data set is described as follows: solubility. The data set is classed as physicochemical. To be noted: current study.
The next data set deals with human ThyA (HsThyA) (Homo sapiens, UniProt P04818). The data set can be described thus: cell-free ThyA and ThyX enzyme inhibition assay. The data set is classed as biochemical. To be noted: purified HsThyA, inhibitor 13 μM, compared to positive control 1843U89.
The target of data set [7] is M. tuberculosis ThyA (MtThyA) (Mycobacterium tuberculosis, UniProt P9WFR9). The data set can be described thus: cell-free ThyA and ThyX enzyme inhibition assay. The data set is classed as biochemical.
Another data set concerns the target MtThyX (Mycobacterium tuberculosis, UniProt P9WG57). In words: cell-free ThyA and ThyX enzyme inhibition assay. The data set is classed as biochemical, M. tuberculosis.
Data set [8] concerns M. tuberculosis. The data set is classed as cell-based.
The conditions of data set [9]: 100 mg/kg intraperitoneally; deposited solid residues; cited from earlier work.
In data set [10] the test system is Staphylococcus aureus strains (FDA209P, ATCC6538P, KB199). To be noted: three Staphylococcus aureus strains (FDA209P, ATCC6538P, KB199); cited from earlier work.
Data set [11] deals with Streptococcus faecium IFO3181. To be noted: cited from earlier work.
A further data set relates to Micrococcus luteus. Conditions: cited from earlier work.
For data set [12] the following is noted: previous study ref 18; cited from earlier work.
For data set [13], the target named is thymidylate synthase (E. faecium). Conditions: competitive with coenzyme 5,10-methylenetetrahydrofolate; cited from earlier work.
Another data set relates to M. tuberculosis H37Rv. In words: microplate Alamar Blue assay. The data set is classed as cell-based. Conditions: Mycobacterium tuberculosis.

The structures appear in SMILES notation. Converted amounts (≈) assume the structure as drawn.

Sequence of human ThyA (HsThyA) (P04818 whole entry): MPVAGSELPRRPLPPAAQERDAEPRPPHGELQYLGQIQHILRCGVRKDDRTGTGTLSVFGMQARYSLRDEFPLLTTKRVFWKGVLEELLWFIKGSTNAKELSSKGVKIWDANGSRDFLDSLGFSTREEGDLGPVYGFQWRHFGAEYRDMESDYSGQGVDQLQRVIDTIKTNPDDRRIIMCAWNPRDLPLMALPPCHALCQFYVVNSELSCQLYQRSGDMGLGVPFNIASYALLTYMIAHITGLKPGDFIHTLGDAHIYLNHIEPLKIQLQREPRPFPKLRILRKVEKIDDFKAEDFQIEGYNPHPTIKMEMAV
Sequence of MtThyX (P9WG57 whole entry): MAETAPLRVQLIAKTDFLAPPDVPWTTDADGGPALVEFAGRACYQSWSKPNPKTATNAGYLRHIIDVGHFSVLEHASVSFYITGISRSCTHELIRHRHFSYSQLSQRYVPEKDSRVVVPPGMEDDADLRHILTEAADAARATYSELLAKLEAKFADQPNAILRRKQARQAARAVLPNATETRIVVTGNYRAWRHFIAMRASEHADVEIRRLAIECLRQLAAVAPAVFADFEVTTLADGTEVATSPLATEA
Sequence of M. tuberculosis ThyA (MtThyA) (P9WFR9 whole entry): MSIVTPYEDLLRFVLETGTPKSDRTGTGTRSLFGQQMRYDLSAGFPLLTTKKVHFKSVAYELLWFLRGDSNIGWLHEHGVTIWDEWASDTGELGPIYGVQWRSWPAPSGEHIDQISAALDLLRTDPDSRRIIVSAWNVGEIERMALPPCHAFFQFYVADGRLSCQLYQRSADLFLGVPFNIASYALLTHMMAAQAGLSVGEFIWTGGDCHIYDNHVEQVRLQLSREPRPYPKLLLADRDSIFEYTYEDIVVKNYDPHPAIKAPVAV

Consider `CCCc1c2c([nH]c(=O)c1C)C(=O)c1[nH]c(=O)c(C)c(CCC)c1C2=O` [Compound 3, diazaquinomycin A], for which the MIC in data set [1] was 0.72 µg/mL (≈ 2.03 µM); against M. abscessus it was >7.5 µg/mL; in the data set on M. chelonae, >7.5 µg/mL; in the data set with M. marinum, >7.5 µg/mL; in the data set with M. kansasii, >7.5 µg/mL; against M. avium, 3.85 µg/mL (≈ 10.9 µM). Further, the MIC in the data set on M. smegmatis was 4.56 µg/mL (≈ 12.9 µM); with M. bovis BCG, 0.12 µg/mL (≈ 0.339 µM); against E. faecalis it was 8 µg/mL (≈ 22.6 µM); in the data set on E. faecium, 8 µg/mL (≈ 22.6 µM); in data set [4], 32 µg/mL (≈ 90.3 µM); with S. pyogenes, >25 µg/mL. The MIC in the data set on S. pneumoniae was >10 µg/mL; against B. thuringiensis it was 25 µg/mL (≈ 70.5 µM); in the data set with B. cereus 14579 it was 25 µg/mL (≈ 70.5 µM); in the data set on B. cereus 10987, 12.5 µg/mL (≈ 35.3 µM); in the data set with B. anthracis, 6.25 µg/mL (≈ 17.6 µM); in the data set with B. subtilis it was 100 µg/mL (≈ 282 µM). The MIC amounted to 128 µg/mL (≈ 361 µM) in the data set on A. baumannii; 128 µg/mL (≈ 361 µM) with E. coli; 64 µg/mL (≈ 181 µM) in the data set on E. cloacae; 128 µg/mL (≈ 361 µM) in the data set on K. pneumoniae; 128 µg/mL (≈ 361 µM) in the data set on P. aeruginosa; 64 µg/mL (≈ 181 µM) against P. mirabilis. In addition, the results for the MIC (in data set [10]; in data set [11]; with Micrococcus luteus) were 6.25 µg/mL (≈ 17.6 µM), 6.25 µg/mL (≈ 17.6 µM) and 1.13 µg/mL (≈ 3.19 µM), respectively. For the same molecule, the MBC99 result against M. tuberculosis [2] was “did not exhibit a significant MBC99”. For the same molecule, the tolerance in vivo entry in data set [3] is recorded as “well tolerated”. Further, the results for the parent compound remaining in data set [5] and in data set [6] were 96% and 98%, respectively. In the data set with Caco-2, the efflux ratio was 0.2. The “permeability (from apical to basolateral)” value in the data set with Caco-2 was found to be 4.4 ×10⁻⁶ cm/s. In addition, in the data set on Caco-2, the “permeability (from basolateral to apical)” value is 0.9 ×10⁻⁶ cm/s. Besides, in the data set on Caco-2, the “recovery (from apical to basolateral)” value was 82%. Moreover, the “recovery (from basolateral to apical)” value with Caco-2 was 98%. Moreover, the “maximum room temperature concentration in DMSO” value in the data set “solubility” is 600 µg/mL. In addition, the “inhibition of enzyme activity” value (against human ThyA (HsThyA); in data set [7]; against MtThyX) was “did not significantly inhibit” throughout. Also, in the data set on M. tuberculosis [8], the “reversal of antibiotic properties by thymidine” value is listed as “no reversal”. In [9], the toxicity in vivo entry is reported as “acute toxicity”. For the same molecule, the “maximum room temperature concentration in water” value in data set [12] was 0.15 µg/mL. In data set [13], the Ki is 36 µM.
The molecule `O=[N+]([O-])c1cn2c(n1)OC[C@@H](OCc1ccc(OC(F)(F)F)cc1)C2` [PA824] gave an MIC in the data set on M. tuberculosis H37Rv of 0.01 µg/mL (≈ 0.0278 µM).

Broadly, the MIC is the least concentration at which growth counts as inhibited. By efflux ratio is commonly meant the permeability from basolateral to apical divided by that in the opposite direction, in the common usage. A word on the Ki: it is the equilibrium dissociation constant of an inhibitor or competing ligand from its target.
